Where a name gives a salt, the structure may show the parent alone. Read-outs that look alike come from different tables or passages of the source.
Biological target: T1, Rec. human COMT (Homo sapiens, UniProt P21964)
T1 sequence (P21964 1-271): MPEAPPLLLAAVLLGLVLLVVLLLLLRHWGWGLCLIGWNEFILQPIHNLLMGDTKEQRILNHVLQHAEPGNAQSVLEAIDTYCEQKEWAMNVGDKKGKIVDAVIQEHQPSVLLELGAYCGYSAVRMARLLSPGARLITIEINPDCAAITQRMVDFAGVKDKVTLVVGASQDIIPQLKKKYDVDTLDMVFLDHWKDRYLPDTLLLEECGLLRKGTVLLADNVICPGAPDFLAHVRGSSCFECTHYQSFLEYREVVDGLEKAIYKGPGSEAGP
Assay: COMT-Fluorescence Assay
Assay type: biochemical
Details: rec. human COMT 25 nM, 4-Nitrocatechol-Alexa488 200 nM, SAM 500 nM
Procedure: This intramolecular interaction is disturbed if the 4-Nitrocatechol is methylated. […] This increase of fluorescence intensity can be followed in a kinetic measurement. The slope in the linear range of the kinetic is calculated. An inhibitor compound decreases the slope.
Signal [rfu/min]=(rfu(end-point)−rfu(startpoint))/incubation_time_#2

[1] = COMT-fluorescence assay, read-out: IC50

| SMILES | IC50 [1] [nM] | IC50 (IC50, COMT-fluorescence assay) [nM] |
| --- | --- | --- |
| CCOc1cc(F)ccc1-c1cc(O)c2nc[nH]c(=O)c2c1 [Example 211, 6-(2-Ethoxy-4-fluorophenyl)-8-hydroxyquinazolin-4(3H)-one] | 70 |  |
| Cc1ccc(F)cc1-c1cc(O)c2nc[nH]c(=O)c2c1 [Example 213, 6-(5-Fluoro-2-methylphenyl)-8-hydroxyquinazolin-4(3H)-one] |  | 30 |
| CCOc1cc(Cl)ccc1-c1cc(O)c2nc[nH]c(=O)c2c1 [Example 215, 6-(4-Chloro-2-ethoxyphenyl)-8-hydroxyquinazolin-4(3H)-one] |  | 70 |
| O=c1[nH]cnc2c(O)cc(-c3cccnc3OCC(F)(F)F)cc12 [Example 216, 8-Hydroxy-6-(2-(2,2,2-trifluoroethoxy)pyridin-3-yl)quinazolin-4(3H)-one] | 40 |  |
| CC(C)N(Cc1ccccc1-c1cc(O)c2nc[nH]c(=O)c2c1)C(C)C [Example 218, 6-(2-((Diisopropylamino)methyl)phenyl)-8-hydroxyquinazolin-4(3H)-one] | 1400 |  |
| Cc1cnccc1-c1cc(O)c2nc[nH]c(=O)c2c1 [Example 219, 8-Hydroxy-6-(3-methylpyridin-4-yl)quinazolin-4(3H)-one] | 20 |  |
| O=c1[nH]cnc2c(O)cc(-c3ccccc3Oc3ccccc3)cc12 [Example 222, 8-Hydroxy-6-(2-phenoxyphenyl)quinazolin-4(3H)-one] | 60 |  |
| CC(C)N(C(=O)c1ccccc1-c1cc(O)c2nc[nH]c(=O)c2c1)C(C)C [Example 226, 2-(8-Hydroxy-4-oxo-3,4-dihydroquinazolin-6-yl)-N,N-diisopropylbenzamide] | 1030 |  |
| O=c1[nH]cnc2c(O)cc(-c3ccccc3OCc3ccccc3)cc12 [Example 227, 6-(2-(Benzyloxy)phenyl)-8-hydroxyquinazolin-4(3H)-one] | 50 |  |
| CCCCOc1ccccc1-c1cc(O)c2nc[nH]c(=O)c2c1 [Example 228, 6-(2-Butoxyphenyl)-8-hydroxyquinazolin-4(3H)-one] | 50 |  |
| CN(C)Cc1cccc(-c2cc(O)c3nc[nH]c(=O)c3c2)c1 [Example 229, 6-(3-Dimethylaminomethyl-phenyl)-8-hydroxy-3H-quinazolin-4-one] | 54 |  |
| CN1CCN(C(=O)c2cc(-c3cc(O)c4nc[nH]c(=O)c4c3)n(C)n2)CC1 [Example 230, 8-Hydroxy-6-(1-methyl-3-(4-methylpiperazine-1-carbonyl)-1H-pyrazol-5-yl)quinazolin-4(3H)-one formate] | 20 |  |
| COCc1cc(C(=O)N2CCN(C)CC2)ccc1-c1cc(O)c2nc[nH]c(=O)c2c1 [Example 231, 8-Hydroxy-6-[2-methoxymethyl-4-(4-methyl-piperazine-1-carbonyl)-phenyl]-3H-quinazolin-4-one; compound with formic acid] | 10 |  |
| COCc1ccc(C(=O)N2CCN(C)CC2)cc1-c1cc(O)c2nc[nH]c(=O)c2c1 [Example 233, 8-Hydroxy-6-[2-methoxymethyl-5-(4-methyl-piperazine-1-carbonyl)-phenyl]-3H-quinazolin-4-one; compound with formic acid] | 1170 |  |
| COCc1c(C(=O)N2CCN(C)CC2)cccc1-c1cc(O)c2nc[nH]c(=O)c2c1 [Example 235, 8-Hydroxy-6-[2-methoxymethyl-3-(4-methyl-piperazine-1-carbonyl)-phenyl]-3H-quinazolin-4-one] | 30 |  |
| O=c1[nH]cnc2c(O)cc(-c3ccccc3COCCN3CCOCC3)cc12 [Example 236, 8-Hydroxy-6-[2-(2-morpholin-4-yl-ethoxymethyl)-phenyl]-3H-quinazolin-4-one] | 20 |  |
| O=c1[nH]cnc2c(O)cc(-c3ccccc3COCCN3CCCC3)cc12 [Example 238, 8-Hydroxy-6-(2-((2-(pyrrolidin-1-yl)ethoxy)methyl)phenyl)quinazolin-4(3H)-one] | 30 |  |
| O=c1[nH]cnc2c(O)cc(-c3ccccc3COCCN3CCCC3)cc12 [Example 239, 8-Hydroxy-6-[2-(2-pyrrolidin-1-yl-ethoxymethyl)-phenyl]-3H-quinazolin-4-one; compound with trifluoro-acetic acid] | 50 |  |
| CN1CCN(CCOCc2ccccc2-c2cc(O)c3nc[nH]c(=O)c3c2)CC1 [Example 240, 8-Hydroxy-6-(2-((2-(4-methylpiperazin-1-yl)ethoxy)methyl)phenyl)quinazolin-4(3H)-one] | 30 |  |
| CN(C)CCOCc1ccccc1-c1cc(O)c2nc[nH]c(=O)c2c1 [Example 241, 6-(2-((2-(Dimethylamino)ethoxy)methyl)phenyl)-8-hydroxyquinazolin-4(3H)-one] | 30 |  |
| O=c1[nH]cnc2c(O)cc(-c3ccccc3CCCN3CCCC3)cc12 [Example 242, 8-Hydroxy-6-(2-(3-(pyrrolidin-1-yl)propyl)phenyl)quinazolin-4(3H)-one] | 220 |  |

Now from value to compound:

| IC50 [1] [nM] | IC50 (IC50, COMT-fluorescence assay) [nM] | SMILES |
| --- | --- | --- |
| 20 |  | N#Cc1ccccc1-c1cc(O)c2nc[nH]c(=O)c2c1 [Example 207, 2-(8-Hydroxy-4-oxo-3,4-dihydroquinazolin-6-yl)benzonitrile] |
| 50 |  | N#CCc1ccccc1-c1cc(O)c2nc[nH]c(=O)c2c1 [Example 208, 2-(2-(8-Hydroxy-4-oxo-3,4-dihydroquinazolin-6-yl)phenyl)acetonitrile] |
| 370 |  | CN(C)c1ccccc1-c1cc(O)c2nc[nH]c(=O)c2c1 [Example 209, 6-(2-(Dimethylamino)phenyl)-8-hydroxyquinazolin-4(3H)-one] |
| 30 |  | Cc1ccccc1-c1cc(O)c2nc[nH]c(=O)c2c1 [Example 210, 8-Hydroxy-6-o-tolylquinazolin-4(3H)-one] |
|  | 870 | CS(=O)(=O)c1ccccc1-c1cc(O)c2nc[nH]c(=O)c2c1 [Example 212, 8-Hydroxy-6-(2-(methylsulfonyl)phenyl)quinazolin-4(3H)-one] |
| 640 |  | O=c1[nH]cnc2c(O)cc(-c3ccccc3-c3ccccc3)cc12 [Example 214, 6-(Biphenyl-2-yl)-8-hydroxyquinazolin-4(3H)-one] |
| 50 |  | CCc1ccccc1-c1cc(O)c2nc[nH]c(=O)c2c1 [Example 217, 6-(2-Ethylphenyl)-8-hydroxyquinazolin-4(3H)-one] |
| 20 |  | COCc1ccccc1-c1cc(O)c2nc[nH]c(=O)c2c1 [Example 220, 8-Hydroxy-6-(2-(methoxymethyl)phenyl)quinazolin-4(3H)-one] |
| 30 |  | O=c1[nH]cnc2c(O)cc(-c3ccccc3C(F)(F)F)cc12 [Example 221, 8-Hydroxy-6-(2-(trifluoromethyl)phenyl)quinazolin-4(3H)-one] |
| 20 |  | CSc1ccccc1-c1cc(O)c2nc[nH]c(=O)c2c1 [Example 223, 8-Hydroxy-6-(2-(methylthio)phenyl)quinazolin-4(3H)-one] |
|  | 220 | O=c1[nH]cnc2c(O)cc(-c3ccccc3N3CCOCC3)cc12 [Example 224, 8-Hydroxy-6-(2-morpholinophenyl)quinazolin-4(3H)-one] |
| 60 |  | CCOc1ccccc1-c1cc(O)c2nc[nH]c(=O)c2c1 [Example 225, 6-(2-Ethoxyphenyl)-8-hydroxyquinazolin-4(3H)-one] |
|  | 310 | CNCCc1ccccc1-c1cc(O)c2nc[nH]c(=O)c2c1 [Example 232, 8-Hydroxy-6-(2-(2-(methylamino)ethyl)phenyl)quinazolin-4(3H)-one] |
| 980 |  | CN(C)CCc1ccccc1-c1cc(O)c2nc[nH]c(=O)c2c1 [Example 234, 6-(2-(2-(Dimethylamino)ethyl)phenyl)-8-hydroxyquinazolin-4(3H)-one] |

Source: patent US9656971B2, “COMT inhibitors” (Hoffmann-La Roche Inc., priority 2012, dated 2017)
